Results on 8 compounds are retold here after ChEMBL document CHEMBL6120984, “Novel potent SOS1 inhibitors containing a tricyclic quinazoline scaffold: A joint view of experiments and simulations” (Eur J Med Chem, 2025).

One data set has as its target SOS1-KRAS (Homo sapiens, UniProt Q07889). The data set can be described thus: Inhibition of 6His peptide-tagged recombinant human SOS1 (564 to 1049 residues)/N-terminal GST-tagged human recombinant KRAS G12C mutant protein-protein interaction incubated for 1 hrs by HTRF assay. The class given is protein-complex assay.
A short description of data set [1]: Inhibition of ERK phosphorylation in human DLD-1 cells expressing KRAS G13D mutant incubated for 60 mins by HTRF assay. The note with it: DLD-1, 1 h. The class given is cell-based.
Data set [2] relates to MIA PaCa-2. In words: Antiproliferative activity against human MIA PaCa-2 cells expressing KRAS G12C mutant assessed as inhibition of cell proliferation incubated for 14 days in 3-D culture condition. The class given is functional, cell-based. The note with it: MIA PaCa-2, 336 h.
The subject of data set [3] is MIA PaCa-2. In words: Antiproliferative activity against human MIA PaCa-2 cells expressing KRAS G12C mutant assessed as maximal inhibition of cell proliferation incubated for 14 days in 3-D culture condition relative to control. The class given is functional. The following applies: time 14 day.
Data set [4] in a line: Elimination rate constant in male CD-1 mouse at 10 mg/kg, po measured after 24 hrs by LC-MS/MS analysis. The class given is ADME, organism-based. The note with it: in vivo.
Data set [5] is described as follows: Half-life in male CD-1 mouse at 10 mg/kg, po measured after 24 hrs by LC-MS/MS analysis. The class given is ADME, organism-based. The note with it: in vivo.
A short description of data set [6]: Tmax in male CD-1 mouse at 10 mg/kg, po measured after 24 hrs by LC-MS/MS analysis. The class given is ADME, organism-based. The following applies: in vivo.
Data set [7] can be described thus: Cmax in male CD-1 mouse at 10 mg/kg, po measured after 24 hrs by LC-MS/MS analysis. The note with it: in vivo. The class given is ADME, organism-based.
Data set [8] is described as follows: AUC in male CD-1 mouse at 10 mg/kg, po measured after 24 hrs by LC-MS/MS analysis. The note with it: in vivo. The class given is ADME, organism-based.
Data set [9] can be described thus: MRT in male CD-1 mouse at 10 mg/kg, po measured after 24 hrs by LC-MS/MS analysis. The note with it: in vivo. The class given is ADME, organism-based.
The next data set relates to NCI-H358. The data set can be described thus: Antiproliferative activity against human NCI-H358 cells expressing KRAS G12C mutant assessed as inhibition of cell proliferation. The class given is functional, cell-based.
A short description of data set [10]: Therapeutic index, ratio of IC50 for human MCF-10A cells to IC50 for human MIA PaCa-2 cells expressing KRAS G12C mutant. The class given is toxicity. The note with it: read-out: Ratio IC50.
In the next data set the test system is NCI-H441. The data set can be described thus: Antiproliferative activity against human NCI-H441 cells expressing KRAS G12V mutant assessed as inhibition of cell proliferation. The class given is functional, cell-based.
The next data set relates to DLD-1. In words: Antiproliferative activity against human DLD-1 cells expressing KRAS G13D mutant assessed as inhibition of cell proliferation. The class given is functional, cell-based.
The next data set deals with NCI-H520. The data set can be described thus: Antiproliferative activity against human NCI-H520 cells expressing wildtype KRAS assessed as inhibition of cell proliferation. The class given is functional, cell-based.
Data set [11] can be described thus: Cytotoxicity against human MCF-10A cells assessed as inhibition of cell proliferation.
A short description of data set [12]: Therapeutic index, ratio of IC50 for human MCF-10A cells to IC50 for human NCI-H358 cells expressing KRAS G12C mutant. The class given is toxicity. The following applies: read-out: Ratio IC50.
Data set [13] in a line: Therapeutic index, ratio of IC50 for human MCF-10A cells to IC50 for human NCI-H441 cells expressing KRAS G12V mutant. The class given is toxicity. The following applies: read-out: Ratio IC50.
A short description of data set [14]: Therapeutic index, ratio of IC50 for human MCF-10A cells to IC50 for human DLD-1 cells expressing KRAS G13D mutant. The class given is toxicity. The note with it: MCF-10A cells versus DLD-1 cells expressing KRAS G13D mutant, read-out: Ratio IC50.
The test system of data set [15] is MIA PaCa-2. The data set can be described thus: Antitumor activity against human MIA PaCa-2 cells xenografted in female BALB/c nude mouse assessed as tumor growth inhibition at 50 mg/kg, po administered twice daily for 21 days relative to control. The class given is functional. The note with it: MIA PaCa-2, 504 h, time 21 day, read-out: TGI.
Data set [16] concerns Mus musculus. In words: In vivo inhibition of ERK phosphorylation in female BALB/c nude mouse xenografted with human MIA PaCa-2 cells assessed as effect on phosphorylated ERK level in tumor at 50 mg/kg, po administered twice daily for 21 days. The class given is functional, organism-based. The following applies: time 21.0 day.
Data set [17] relates to Mus musculus. In words: In vivo inhibition of AKT phosphorylation in female BALB/c nude mouse xenografted with human MIA PaCa-2 cells assessed as effect on phosphorylated AKT level in tumor at 50 mg/kg, po administered twice daily for 21 days. The class given is functional, organism-based. The note with it: time 21.0 day.
Data set [18] in a line: Toxicity in female BALB/c nude mouse xenografted with human MIA PaCa-2 cells assessed as animal death at 50 mg/kg, po administered twice daily for 21 days. The note with it: in vivo, 504 h, time 21 day. The class given is organism-based.
Data set [19] can be described thus: Toxicity in female BALB/c nude mouse xenografted with human MIA PaCa-2 cells assessed as body weight loss at 50 mg/kg, po administered twice daily for 21 days. The class given is organism-based. The note with it: in vivo, 504 h, time 21 day.

pIC50: −log10 of the molar value. The source made the active and inactive calls. The calls are words filed in the database; no cut-off is given here. Some results are limits rather than exact numbers.

SOS1-KRAS, sequence (Q07889 whole entry, looked up, stated change not applied, the tested form may be a part): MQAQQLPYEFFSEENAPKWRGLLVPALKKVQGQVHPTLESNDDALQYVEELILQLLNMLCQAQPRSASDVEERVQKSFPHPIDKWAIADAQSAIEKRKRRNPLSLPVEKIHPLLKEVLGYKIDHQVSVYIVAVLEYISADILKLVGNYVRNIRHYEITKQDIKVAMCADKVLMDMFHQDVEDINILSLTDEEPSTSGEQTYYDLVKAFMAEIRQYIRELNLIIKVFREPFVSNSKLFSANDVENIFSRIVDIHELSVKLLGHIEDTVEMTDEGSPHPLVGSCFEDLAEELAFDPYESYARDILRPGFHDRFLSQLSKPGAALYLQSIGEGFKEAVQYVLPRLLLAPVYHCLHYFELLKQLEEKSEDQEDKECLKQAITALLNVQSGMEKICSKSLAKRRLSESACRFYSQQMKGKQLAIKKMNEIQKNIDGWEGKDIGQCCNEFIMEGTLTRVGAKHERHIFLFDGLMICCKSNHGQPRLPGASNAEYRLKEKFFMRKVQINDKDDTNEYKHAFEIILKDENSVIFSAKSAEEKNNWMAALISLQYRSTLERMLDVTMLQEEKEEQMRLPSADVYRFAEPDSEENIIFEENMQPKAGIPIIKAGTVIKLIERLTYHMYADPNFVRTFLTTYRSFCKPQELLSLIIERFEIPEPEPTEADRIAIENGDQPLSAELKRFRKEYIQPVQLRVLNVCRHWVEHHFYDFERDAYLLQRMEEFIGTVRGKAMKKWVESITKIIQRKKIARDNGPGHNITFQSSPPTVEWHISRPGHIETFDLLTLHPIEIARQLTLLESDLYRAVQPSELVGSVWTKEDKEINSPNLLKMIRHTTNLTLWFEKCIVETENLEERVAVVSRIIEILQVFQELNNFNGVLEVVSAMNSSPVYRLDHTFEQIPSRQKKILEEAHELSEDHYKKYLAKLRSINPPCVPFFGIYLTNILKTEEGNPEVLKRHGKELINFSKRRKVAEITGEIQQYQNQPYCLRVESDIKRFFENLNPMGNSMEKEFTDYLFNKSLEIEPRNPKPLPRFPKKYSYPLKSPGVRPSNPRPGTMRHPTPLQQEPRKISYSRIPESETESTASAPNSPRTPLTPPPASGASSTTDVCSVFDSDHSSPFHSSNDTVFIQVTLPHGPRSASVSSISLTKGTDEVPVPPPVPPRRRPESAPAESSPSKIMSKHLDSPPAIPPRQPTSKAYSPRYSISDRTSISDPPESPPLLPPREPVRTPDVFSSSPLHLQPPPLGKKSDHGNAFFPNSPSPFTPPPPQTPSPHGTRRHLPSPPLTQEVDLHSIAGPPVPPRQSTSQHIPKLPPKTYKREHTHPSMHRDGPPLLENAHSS

In the case of `Cc1nc(N[C@H](C)c2cccc(C(F)F)c2F)c2cc3c(cc2n1)OCCN3C(=O)N1CCN(C)CC1`, the pIC50 at SOS1-KRAS was 7.62; in data set [1], 7.01; in the data set with MIA PaCa-2 [2], 6.18. In addition, the Imax with MIA PaCa-2 [3] turned out to be 79%.
In the case of `Cc1nc(N[C@H](C)c2cccc(C(F)F)c2F)c2cc3c(cc2n1)OCCN3C(=O)C1CCN(C)CC1`, the pIC50 is 8.25 at SOS1-KRAS, 7.68 in [1] and 6.85 in the data set with MIA PaCa-2 [2]. The Imax in the data set with MIA PaCa-2 [3] is given as 82%. Further, in [4], the k el at 24 h is 0.000111 s⁻¹. In addition, the half-life in data set [5] was 1.72 h. The Tmax in data set [6] is 0.5 h. In data set [7], this compound gave a Cmax of 650 ng/mL. For the same compound, in data set [8], the AUC at 24 h is 1920 ng·h/mL. The compound further showed an MRT in data set [9] of 2.11 h.
For `C=C(F)C(=O)N1CCN(c2nc(OC[C@@H]3CCCN3C)nc3c2CCN(c2cccc4cccc(Cl)c24)C3)C[C@@H]1CC#N` [ADAGRASIB], in the data set with MIA PaCa-2 [2], the pIC50 is 6.60. The Imax with MIA PaCa-2 [3] is on record as 89%.
Regarding `Cc1nc(N[C@H](C)c2cccc(C(F)F)c2F)c2cc3c(cc2n1)OCCN3C(=O)C1CCOCC1`, the values for the pIC50 (at SOS1-KRAS; in [1]; in the data set on MIA PaCa-2 [2]) were 7.72, 7.15 and 5.88, respectively. Moreover, the Imax in the data set on MIA PaCa-2 [3] is reported as 76%.
The corresponding values for `Cc1nc(N[C@H](C)c2cccc(C(F)F)c2F)c2cc3c(cc2n1)OCCN3C(=O)N1CCN(C)C[C@@H]1C` are 6.32, under 5.52, under 5.00 and 26%.
For `Cc1nc(N[C@H](C)c2cccc(C(F)F)c2F)c2cc3c(cc2n1)OCCN3C(=O)C1CN(C)C1`, the pIC50 was 7.03 at SOS1-KRAS, 6.48 in data set [1] and 5.82 in the data set on MIA PaCa-2 [2]. For the same compound, in the data set with MIA PaCa-2 [3], the Imax was 67%.
As to `Cc1nc(N[C@H](C)c2cccc(C(F)F)c2F)c2cc3c(cc2n1)OCCN3C(=O)C1CCN(C(C)C)CC1`, the pIC50 on SOS1-KRAS is 8.29; in data set [1], 7.74; in the data set with MIA PaCa-2 [2] it was 6.96; in the data set on NCI-H358, 7.15; with NCI-H441, 6.92; in the data set with DLD-1, 7.15. Besides, the values for the pIC50 (in the data set on NCI-H520; in [11]) were 5.54 and 4.35, respectively. Also, in the data set on MIA PaCa-2 [3], the Imax is reported as 86%. In addition, the selectivity ratio in data set [10], in data set [12], in data set [13] and in data set [14] was over 400 throughout. The k el at 24 h in data set [4] was 0.000117 s⁻¹. This compound gave a half-life in data set [5] of 1.65 h. Moreover, the time of peak concentration (Tmax) in data set [6] is 1.08 h. The same compound had a Cmax in [7] of 790 ng/mL. In addition, the AUC at 24 h in [8] was 2910 ng·h/mL. The compound also came in with an MRT in data set [9] of 2.83 h. Further, the inhibition in vivo at 50 mg/kg with MIA PaCa-2 [15] was determined as 70.5%. For the same compound, the inhibition result with Mus musculus [16] and in the data set with Mus musculus [17] was “Active” in each case. Also, the Activity entry in data set [18] and in data set [19] was “Non-toxic” throughout.
On to `COc1cc2nc(C)nc(N[C@H](C)c3cc(N)cc(C(F)(F)F)c3)c2cc1O[C@H]1CCOC1`, for which the pIC50 is 7.52 in data set [1]; 6.82 in the data set on MIA PaCa-2 [2]; 6.92 in the data set with NCI-H358; 6.80 in the data set with NCI-H441; 7.00 in the data set with DLD-1; 5.58 in the data set with NCI-H520. Further, the Imax in the data set with MIA PaCa-2 [3] came to 85%. The compound also had a k el at 24 h in [4] of 0.000119 s⁻¹. The same compound gave a half-life in data set [5] of 1.67 h. Besides, the time to peak (Tmax) in data set [6] is 0.33 h. In data set [7], this compound had a Cmax of 870 ng/mL. The compound further registered an area under the curve (AUC) at 24 h in data set [8] of 2300 ng·h/mL. Besides, the MRT in data set [9] was 2.44 h. Also, in the data set on MIA PaCa-2 [15], the inhibition in vivo at 50 mg/kg was determined as 56.3%. For the same compound, the inhibition entry with Mus musculus [16] and in the data set on Mus musculus [17] was “Active” throughout.
